Results: PubChem BioAssay AID256 (DTP/NCI, 2004)
Toxic doses and inconclusive results are not listed.

System: CD2F1 mice, L1210 leukemia ip, survival T/C
Assay: NCI In Vivo Anticancer Drug Screen. Data for tumor model L1210 Leukemia (intraperitoneal) in CD2F1 (CDF1) mice
Conditions: endpoint: mean survival time, higher = longer survival
Summary of the method: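 Transplantable tumor in mice; compound-treated vs vehicle-treated groups. Read-out = treated/control ratio of the measured endpoint.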

[1] = dose: 100.0 mg/kg/injection, schedule: Q01DX001 (ip), vehicle: saline with Tween-80
[2] = dose: 200.0 mg/kg/injection, schedule: Q01DX001 (ip), vehicle: saline with Tween-80
[3] = dose: 400.0 mg/kg/injection, schedule: Q01DX001 (ip), vehicle: saline with Tween-80
[4] = dose: 100.0 mg/kg/injection, schedule: Q04DX003 (ip), vehicle: saline
[5] = dose: 200.0 mg/kg/injection, schedule: Q04DX003 (ip), vehicle: saline
[6] = dose: 400.0 mg/kg/injection, schedule: Q04DX003 (ip), vehicle: saline
[7] = dose: 50.0 mg/kg/injection, schedule: Q04DX002 (ip), vehicle: saline
[8] = dose: 100.0 mg/kg/injection, schedule: Q04DX002 (ip), vehicle: saline
[9] = dose: 200.0 mg/kg/injection, schedule: Q04DX002 (ip), vehicle: saline
[10] = dose: 400.0 mg/kg/injection, schedule: Q04DX002 (ip), vehicle: saline
[11] = dose: 100.0 mg/kg/injection, schedule: Q04DX003 (ip), vehicle: saline with Tween-80
[12] = dose: 200.0 mg/kg/injection, schedule: Q04DX003 (ip), vehicle: saline with Tween-80
[13] = dose: 400.0 mg/kg/injection, schedule: Q04DX003 (ip), vehicle: saline with Tween-80
[14] = dose: 100.0 mg/kg/injection, schedule: Q01DX009 (ip), vehicle: saline with Tween-80
[15] = dose: 200.0 mg/kg/injection, schedule: Q01DX009 (ip), vehicle: saline with Tween-80
[16] = dose: 400.0 mg/kg/injection, schedule: Q01DX009 (ip), vehicle: saline with Tween-80

`CCOC(=O)C(=CC(C(=O)OCC)C(=O)OCC)C(=O)OCC` was tested, and the T/C [1] was 93 % of control, the T/C [2] was 104 % of control and the T/C [3] was 96 % of control.

In the case of `O=C(O)c1ccccc1C(=O)c1ccccc1`, the T/C (dose: 100.0 mg/kg/injection, schedule: Q01DX009 (ip), vehicle: saline) is reported as 97 % of control, the T/C [4] is reported as 90 % of control and the T/C (dose: 200.0 mg/kg/injection, schedule: Q01DX009 (ip), vehicle: saline) is reported as 101 % of control. The T/C [5] was 95 % of control, the T/C (dose: 400.0 mg/kg/injection, schedule: Q01DX009 (ip), vehicle: saline) was 101 % of control and the T/C [6] was 103 % of control.

`NCCC(O)C(=O)NC1CC(N)C(OC2OC(CN)C(O)C(O)C2N)C(OC2OC(CO)C(O)C2O)C1O` (centres undefined) was tested, and the T/C (dose: 50.0 mg/kg/injection, schedule: Q04DX002 (ip), vehicle: saline with Tween-80) was 100 % of control, the T/C [7] was 98 % of control and the T/C (dose: 100.0 mg/kg/injection, schedule: Q04DX002 (ip), vehicle: saline with Tween-80) was 100 % of control. The T/C [8] was 98 % of control, the T/C (dose: 200.0 mg/kg/injection, schedule: Q04DX002 (ip), vehicle: saline with Tween-80) was 96 % of control and the T/C [9] was 95 % of control. The T/C (dose: 400.0 mg/kg/injection, schedule: Q04DX002 (ip), vehicle: saline with Tween-80) was 96 % of control and the T/C [10] was 98 % of control.

In the case of `COC(=O)c1cc(Cl)ccc1OCC(=O)Nc1ccccc1`, the T/C [1] is reported as 90 % of control, the T/C [2] is reported as 94 % of control and the T/C [3] is reported as 94 % of control.

`CCNc1ncnc2c1c(C(N)=S)cn2C1OC(CO)C(O)C1O` (centres undefined) was tested, and the T/C (dose: 6.25 mg/kg/injection, schedule: Q01DX009 (ip), vehicle: saline) was 116 % of control, the T/C (dose: 12.5 mg/kg/injection, schedule: Q01DX009 (ip), vehicle: saline) was 116 % of control and the T/C (dose: 25.0 mg/kg/injection, schedule: Q01DX009 (ip), vehicle: saline) was 150 % of control.

In the case of `Cc1ccc(CC(F)(F)F)cc1`, the T/C [11] is reported as 100 % of control, the T/C [12] is reported as 100 % of control and the T/C [13] is reported as 108 % of control.

`CC(C)(C)CC(C)(C)c1ccc(OCCOS(=O)(=O)c2cccc([N+](=O)[O-])c2)cc1` was tested, and the T/C (dose: 50.0 mg/kg/injection, schedule: Q01DX009 (ip), vehicle: saline with Tween-80) was 96 % of control, the T/C [14] was 89 % of control and the T/C [15] was 94 % of control.

For `c1nc(Sc2ncnc3nc[nH]c23)c2[nH]cnc2n1`, the T/C (dose: 75.0 mg/kg/injection, schedule: Q01DX009 (ip), vehicle: saline with Tween-80) was 123 % of control and the T/C (dose: 300.0 mg/kg/injection, schedule: Q01DX009 (ip), vehicle: saline with Tween-80) was 169 % of control.

`CS(=O)(=O)c1nnc(S(C)(=O)=O)s1` was tested, and the T/C (dose: 3.0 mg/kg/injection, schedule: Q01DX009 (ip), vehicle: saline sonified) was 104 % of control, the T/C (dose: 6.0 mg/kg/injection, schedule: Q01DX009 (ip), vehicle: saline sonified) was 102 % of control and the T/C (dose: 12.0 mg/kg/injection, schedule: Q01DX009 (ip), vehicle: saline sonified) was 113 % of control. For the same compound, the T/C (dose: 12.5 mg/kg/injection, schedule: Q04DX003 (ip), vehicle: saline sonified) was 104 % of control.

In the case of `CC1=CCC2(C)CCC(C(C)C)C2(O)CC1` (centres undefined), the T/C [4] is reported as 101 % of control, the T/C [5] is reported as 93 % of control and the T/C [6] is reported as 102 % of control.

`CC(=O)Nc1nnc(SCc2ccccc2)s1` was tested, and the T/C [14] was 100 % of control, the T/C [11] was 92 % of control and the T/C [15] was 96 % of control. The T/C [12] was 89 % of control, the T/C [16] was 100 % of control and the T/C [13] was 89 % of control.

With `CCOC(=O)c1cc2c3n(c1=O)CCCC3C(c1ccc(Cl)c(Cl)c1)OC2=O` (centres undefined) the T/C [4] was 98 % of control, the T/C [5] was 101 % of control and the T/C [6] was 104 % of control.

`CC(=O)CC(=O)Nc1cccc(Br)c1` was tested, and the T/C [14] was 98 % of control, the T/C [15] was 101 % of control and the T/C [16] was 101 % of control.

`CC(C)C1C=C2CCC3C(C)(C(=O)O)CCCC3(C)C2CC1` (centres undefined) was tested, and the T/C [1] was 96 % of control, the T/C [2] was 94 % of control and the T/C [3] was 92 % of control.

With `Cc1c(-c2ccc(Cl)cc2)nc2cc(Cl)ccc2c1C(=O)O` the T/C [8] was 92 % of control, the T/C [9] was 88 % of control and the T/C [10] was 98 % of control.

With `CC1CCOC1=O` (centres undefined) the T/C [7] was 98 % of control, the T/C [8] was 98 % of control and the T/C [9] was 102 % of control.
